Source: article PMC6268373, “Systematic Study of the Physicochemical Properties of a Homologous Series of Aminobisphosphonates” (Molecules, 2012)
In brackets after ≈: the same amount, converted by molar mass.

How the values were obtained:
[1] = Aqueous solubility of saturated solution at 21 °C (phosphorus determination by molybdenum blue spectrophotometry); conditions: for pH of saturated solution: saturated aqueous solution, agitation time 30 min; for pH of saturated solution / solubility at 30 min: 21 °C; for solubility at 30 min: Milli-Q water, unbuffered, thermodynamic from solid
Protocol: (§1) A Jasco V-530 UV/Vis spectrophotometer was used for phosphorus determination at 880 nm wavelength. Filtered liquid samples were diluted to the appropriate volume with Milli-Q water and were digested with the persulphate oxidation technique in acidic medium at elevated temperature to convert aminobisphosponates to orthophosphate. In an acidic medium, ammonium molybdate and antimony potassium tartrate react with orthophosphate to form a phosphomolybdic acid that is reduced to intensively colored molybdenum blue by ascorbic acid [30].
(§2) The mixture containing an excess of the studied compound was first agitated for predetermined time with magnetic stirrer and before taking the sample mixture was allowed to stand for 24 h without stirring. The sample (about 5 mL) was taken from liquid above the solids, pH was measured and the sample was filtered through 0.2 µm membrane filter to remove any possible insoluble particles. The phosphorus concentration in the filtered sample solution was determined by using the spectrophotometric method described above.

[2] = Thermal analysis (TG/DTA and TGA 7); type: physicochemical; conditions: for Td: 5 °C/min; for Temp. range of 1st cleavage: lower limit taken at 0.5 wt-%; for Td (decomposition onset): average from both instruments; for Td (decomposition onset) / Temp. range of dehydration / onset T of dehydration: heating rate 5 °C/min
Protocol: Thermal decomposition paths with evaluation of crystal water content were obtained parallel with two instruments; Perkin Elmer STA 6000 thermogravimetric TG/DTA and Perkin Elmer TGA 7 analyzers (Perkin Elmer, Massachusetts, USA). Measurements were carried out in an open platinum crucible (the higher 5 mm crucible was used in TG/DTA and a shallower 2 mm crucible in TGA 7) under air atmosphere (flow rate of 45 mL/min) with a heating rate of 5 °C/min over the temperature range of 25−700 °C. The temperature calibration of STA 6000 was made using melting points of indium (156.60 °C) and zinc (419.5 °C) standards. For TGA 7 magnetic Curie-point calibration technique (Alumel, Ni, Perkalloy, Fe) was used. The weight balance of both instruments was calibrated by measuring a standard weight of 50 mg at room temperature. The sample weights used in the measurements were about 4–8 mg, and for each bisphosphonate, it was attempted to keep the same on both instruments. The melting/dehydration/decomposition behavior of the compounds was also visually monitored using a Stuart Scientific SMP3 melting point apparatus.

[3] = Protonation constants by (traditional) potentiometric titration (TPT), SUPERQUAD; conditions: overall protonation, zero level H2L2−, 0.1 M NaNO3, 25 °C
Description: Results were obtained from […] as overall stability constants (log β values); following the chosen zero level H2L^2−. This zero level H2L^2− was chosen in the calculations to avoid any accumulation of errors of protonation constants at different pH ranges. The log β results for reactions (4) and (5) obtained in the final refinements are listed in Table S3 (see Supporting Information) with error limits (±3σ), number of points/number of titrations and χ^2/Σ statistics.
The details of the experiments using (traditional) potentiometric titration are presented in the Supporting Information. The results of the determination by Sirius instrument are shown in the Supporting Information. Potentiometric titrations of the compounds were performed with the PCA200 apparatus (Sirius Analytical Instruments Ltd, Forest Row, East Sussex, UK).
Table S2. The effect of pH on aqueous solubility (mg/L) of aminoalkylbis(phosphonates) […]
Solubility (g/L) of Compound
Determination of the Protonation Constants Using (traditional) Potentiometric Titration. Reagents:
Aqueous 0.1 M NaOH was prepared from Titrisol ampoules (Merck) and 0.1 M HNO3 from Convol ampoules (BDH). The background solution was prepared by dissolving NaNO3 in deionised water.
The NaNO3 and NaCl used in reference electrode were p.a. grade (Merck). The water used in the dilutions and titration solutions was purified with Milli-RO and Milli-Q water purification systems […]
Potentiometric measurements: The protonation equilibria was studied in aqueous 0.1 M NaNO3 at 25.0 ± 0.1 °C through a series of potentiometric EMF titrations carried out with a Schott-Geräte GmbH […]
The cell arrangement for the measurement of the hydrogen ion concentration [H+] was as follows:
−RE […] equilibrium solution […] GE+ (1) where GE denotes a glass electrode (Schott N2680), and RE is Hg, Hg2Cl2 […] 0.01 M NaCl, 0.09 M NaNO3. Expression (2) is valid assuming that the activity coefficients are constant.
The cell parameter E0 and the liquid junction coefficient jH, valid in acidic solutions, were determined for each titration by adding a known amount of HNO3 to the background electrolyte. The value of the liquid junction coefficient jOH, valid in basic solutions, was determined periodically. Only stable EMF readings were used in the calculations.
During the measurements of the protonation equilibria, aqueous 0.1 M NaOH or 0.1 M HNO3 was […]
Four to eight independent titrations were carried out for each ligand. The number of data points used in […]
Data treatment: Protonation and deprotonation of the ligands were controlled by addition of HNO3 or NaOH. The curves of ZH versus pH were drawn to visualize the experimental data sets. ZH describes the average number of H+ ions added or liberated per mole of ligand and is given by the relationship […]
where CH denotes the total concentration of protons calculated over the zero level H2L2−.
In the evaluation of the equilibrium constants, the following two-component equilibria were utilized:
H2L2− ⇋ H2-xL(2+x)– + xH+ , x = 1–2; β–x (4) xH+ + H2L2− ⇋ Hx+2Lx–2, x = 1–3; βx (5)
Mathematical analysis of the systems involves a search for protonation models and equilibrium constants that best describe the experimental data. The calculations were carried out with the computer […]
1200). The sample standard deviation Σ and the χ2 statistics used as criteria in the selection of the models were those provided by the program. As a means to improve the confidence level, the error limits for log β values determined in this study are reported as three times the standard deviation estimated by the program.
Figure S2. ZH vs. pH for protonation of compounds (a) 1; (b) 2; (c) 3; (d) 4 and (e) 5.

[4] = Effect of pH on aqueous solubility; conditions: for solubility at 30 min: water, pH adjusted with NaOH or HCl, 21 °C, thermodynamic from solid; for pH of solubility minimum: pH range 0.5 to 11.0
Protocol: as §1, §2

pH of saturated solution [1]	Td ([2]; TG/DTA, higher crucible, air)	Temp. range of 1st cleavage ([2]; TG/DTA, higher crucible)	Td ([2]; TGA 7, shallow crucible, air)	Temp. range of 1st cleavage ([2]; TGA 7, shallow crucible)	Td (decomposition onset) ([2]; air)	solubility at 30 min ([1]; water)	Onset temperature of first cleavage ([2]; TG/DTA, higher crucible)	Onset temperature of first cleavage ([2]; TGA 7, shallow crucible)	solubility at 30 min ([4]; pH 0, aqueous buffer)	solubility at 30 min ([4]; pH 1, aqueous buffer)	solubility at 30 min ([4]; pH 2, aqueous buffer)	solubility at 30 min ([4]; pH 3, aqueous buffer)	solubility at 30 min ([4]; pH 4, aqueous buffer)	solubility at 30 min ([4]; pH 5, aqueous buffer)	solubility at 30 min ([4]; pH 6, aqueous buffer)	solubility at 30 min ([4]; pH 7, aqueous buffer)	solubility at 30 min ([4]; pH 8, aqueous buffer)	solubility at 30 min ([4]; pH 9, aqueous buffer)	temperature of first decomposition step (cleavage of amino group / degradation) ([2]; thermogravimetry, air)	SMILES	further results
4.71	199 °C	50–146 °C	204 °C	39–149 °C	202 °C	58 µg/mL (≈ 167 µM)	73 °C	70 °C	180 µg/mL (≈ 518 µM)	80 µg/mL (≈ 230 µM)	50 µg/mL (≈ 144 µM)	80 µg/mL (≈ 230 µM)	180 µg/mL (≈ 518 µM)	230 µg/mL (≈ 662 µM)	270 µg/mL (≈ 777 µM)	290 µg/mL (≈ 835 µM)	250 µg/mL (≈ 720 µM)	290 µg/mL (≈ 835 µM)	200 °C	NCCCCCCCCCCC(O)(P(=O)(O)O)P(=O)(O)O [Compound 8, (11-Amino-1-hydroxyundecylidene)bisphosphonic acid]	Temp. range of dehydration ([2]; air): 40–148 °C; onset T of dehydration ([2]; air): 72 °C; pH of solubility minimum [4]: ~2; solubility at 30 min ([4]; pH 10, aqueous buffer): 400 µg/mL (≈ 1150 µM); solubility at 30 min ([4]; pH 11, aqueous buffer): 370 µg/mL (≈ 1070 µM)
4.05	185 °C	163–232 °C	191 °C	155–221 °C	188 °C	30 µg/mL (≈ 83 µM)	185 °C	191 °C	130 µg/mL (≈ 360 µM)	80 µg/mL (≈ 221 µM)	70 µg/mL (≈ 194 µM)	80 µg/mL (≈ 221 µM)	140 µg/mL (≈ 387 µM)	200 µg/mL (≈ 554 µM)	210 µg/mL (≈ 581 µM)	200 µg/mL (≈ 554 µM)	240 µg/mL (≈ 664 µM)	250 µg/mL (≈ 692 µM)	about 200 °C	NCCCCCCCCCCCC(O)(P(=O)(O)O)P(=O)(O)O [Compound 9, (12-Amino-1-hydroxydodecylidene)bisphosphonic acid]	pH of solubility minimum [4]: ~2; solubility at 30 min ([4]; pH 10, aqueous buffer): 400 µg/mL (≈ 1110 µM); solubility at 30 min ([4]; pH 11, aqueous buffer): 470 µg/mL (≈ 1300 µM)
7.79	178 °C	150–248 °C	181 °C	146–245 °C	180 °C	39 µg/mL (≈ 93.4 µM)	178 °C	181 °C	–	–	–	–	–	–	–	–	–	–	about 200 °C	NCCCCCCCCCCCCCCCC(O)(P(=O)(O)O)P(=O)(O)O [Compound 10, (16-Amino-1-hydroxyhexadecylidene)bisphosphonic acid]	–

Second part, the compound before the results:

SMILES	pH of saturated solution [1]	Td ([2]; TG/DTA, higher crucible, air)	Temp. range of 1st cleavage ([2]; TG/DTA, higher crucible)	Td ([2]; TGA 7, shallow crucible, air)	Temp. range of 1st cleavage ([2]; TGA 7, shallow crucible)	Td (decomposition onset) ([2]; air)	solubility at 30 min ([1]; water)	Onset temperature of first cleavage ([2]; TG/DTA, higher crucible)	Onset temperature of first cleavage ([2]; TGA 7, shallow crucible)	solubility at 30 min ([4]; pH 0, aqueous buffer)	solubility at 30 min ([4]; pH 1, aqueous buffer)	solubility at 30 min ([4]; pH 2, aqueous buffer)	solubility at 30 min ([4]; pH 3, aqueous buffer)	solubility at 30 min ([4]; pH 4, aqueous buffer)	solubility at 30 min ([4]; pH 5, aqueous buffer)	solubility at 30 min ([4]; pH 6, aqueous buffer)	solubility at 30 min ([4]; pH 7, aqueous buffer)	solubility at 30 min ([4]; pH 8, aqueous buffer)	solubility at 30 min ([4]; pH 9, aqueous buffer)	temperature of first decomposition step (cleavage of amino group / degradation) ([2]; thermogravimetry, air)	further results
NCCCC(O)(P(=O)(O)O)P(=O)(O)O [Compound 2, (4-amino-1-hydroxybutylidene)bisphosphonic acid, reference compound]	1.94	222 °C	168–252 °C	225 °C	166–253 °C	224 °C	–	–	–	–	–	–	–	–	–	–	–	–	–	–	Onset of 1st cleavage (in parentheses) ([2]; TG/DTA, higher crucible): 222 °C; Onset of 1st cleavage (in parentheses) ([2]; TGA 7, shallow crucible): 225 °C; logβx ± 3σ, x = 1 (H3L−) [3]: 6.26 ± 0.01; logβx ± 3σ, x = 2 (H4L) [3]: 8.38 ± 0.02; logβx ± 3σ, x = 3 (H5L+) [3]: 8.98 ± 0.20; logβx ± 3σ, x = −1 (HL3−) [3]: −10.69 ± 0.01; logβx ± 3σ, x = −2 (L4−) [3]: −22.82 ± 0.02
NCCCCCCCCC(O)(P(=O)(O)O)P(=O)(O)O [Compound 6, (9-Amino-1-hydroxynonylidene)bisphosphonic acid]	2.51	190 °C	33–175 °C	191 °C	33–173 °C	191 °C	2070 µg/mL (≈ 6470 µM)	77 °C	84 °C	2100 µg/mL (≈ 6580 µM)	1150 µg/mL (≈ 3600 µM)	860 µg/mL (≈ 2690 µM)	1170 µg/mL (≈ 3670 µM)	1080 µg/mL (≈ 3380 µM)	1110 µg/mL (≈ 3480 µM)	1230 µg/mL (≈ 3850 µM)	1190 µg/mL (≈ 3730 µM)	1230 µg/mL (≈ 3850 µM)	1190 µg/mL (≈ 3730 µM)	–	Temp. range of dehydration ([2]; air): 33–175 °C; onset T of dehydration ([2]; air): 81 °C; temperature at which dehydration is initiated ([2]; thermogravimetry, air): ~ 90 °C; solubility at 30 min ([4]; pH 10, aqueous buffer): 1200 µg/mL (≈ 3760 µM); solubility at 30 min ([4]; pH 11, aqueous buffer): 1270 µg/mL (≈ 3980 µM)
NCCCCCCCCCC(O)(P(=O)(O)O)P(=O)(O)O [Compound 7, (10-Amino-1-hydroxydecylidene)bisphosphonic acid]	3.28	185 °C	175–211 °C	189 °C	161–227 °C	187 °C	217 µg/mL (≈ 651 µM)	185 °C	189 °C	–	–	–	–	–	–	–	–	–	–	about 200 °C	water solubility (in words) ([1]; water): hundreds of milligrams
